The target in assay [1] is T1, Progesterone receptor (Homo sapiens, UniProt P06401).
T1 sequence (P06401 whole entry): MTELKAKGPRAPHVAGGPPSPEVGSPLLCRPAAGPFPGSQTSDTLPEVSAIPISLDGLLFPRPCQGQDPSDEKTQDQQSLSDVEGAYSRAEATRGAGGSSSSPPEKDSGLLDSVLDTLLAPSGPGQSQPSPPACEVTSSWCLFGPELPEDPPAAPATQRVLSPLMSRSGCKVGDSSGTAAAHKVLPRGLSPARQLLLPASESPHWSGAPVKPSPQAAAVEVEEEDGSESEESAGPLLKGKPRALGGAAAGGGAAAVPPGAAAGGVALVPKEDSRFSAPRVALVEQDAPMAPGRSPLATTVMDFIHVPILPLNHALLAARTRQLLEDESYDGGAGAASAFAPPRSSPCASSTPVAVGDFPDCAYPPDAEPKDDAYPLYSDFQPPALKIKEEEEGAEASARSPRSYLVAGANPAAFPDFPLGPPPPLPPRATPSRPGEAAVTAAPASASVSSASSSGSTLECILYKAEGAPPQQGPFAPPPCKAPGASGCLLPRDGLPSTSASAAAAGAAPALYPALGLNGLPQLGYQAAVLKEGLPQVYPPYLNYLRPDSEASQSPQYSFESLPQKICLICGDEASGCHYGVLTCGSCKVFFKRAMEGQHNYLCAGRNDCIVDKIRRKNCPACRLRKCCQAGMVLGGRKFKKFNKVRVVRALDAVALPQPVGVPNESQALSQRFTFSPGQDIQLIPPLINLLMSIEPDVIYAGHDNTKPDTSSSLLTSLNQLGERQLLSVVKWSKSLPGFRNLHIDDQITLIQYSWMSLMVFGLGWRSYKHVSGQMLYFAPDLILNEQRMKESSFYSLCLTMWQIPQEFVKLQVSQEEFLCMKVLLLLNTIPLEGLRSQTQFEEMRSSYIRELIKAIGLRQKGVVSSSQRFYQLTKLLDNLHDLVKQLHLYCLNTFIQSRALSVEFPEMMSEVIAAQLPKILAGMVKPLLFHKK
The assay can be described thus: Agonistic activity was measured for modulation of hPR-B (human progesterone receptor) in co-transfected CV-1 cells. Format: functional, cell-based.

The target in assay [2] is T1, Progesterone receptor. Nature of the assay: The binding affinity measured using baculovirus-expressed hPR-A in sf21 cells.
The species named for another assay is Rattus norvegicus. Nature of the assay: Compound was Dawley rats expressed as response to MPA at […]. Type of assay: functional.

Here are results for 22 molecules from ChEMBL document CHEMBL1131299 (J Med Chem, 1998).

A word on the EC50: it is the concentration at which the effect is half-maximal. One may read the Ki as a measure of affinity in units of concentration, obtained from inhibition or displacement. Read a high Ki as weaker binding.

The molecule `CC1=CC(C)(C)Nc2ccc3c(c21)C(c1ccc(F)c(C)c1)Oc1ccc(F)cc1-3` (stereo not drawn) yielded an EC50 at Progesterone receptor [1] of 15 nM. At Progesterone receptor [2], this molecule came in with a Ki of 1.3 nM.
In the assay filed under Rattus norvegicus, `CC(=O)O[C@]1(C(C)=O)CC[C@H]2[C@@H]3C[C@H](C)C4=CC(=O)CC[C@]4(C)[C@H]3CC[C@@]21C` [MEDROXYPROGESTERONE ACETATE] came in with an Efficacy of 100%.
For `CC1=CC(C)(C)Nc2ccc3c(c21)C(c1ccc(Br)cc1)Oc1ccc(Cl)cc1-3` (stereo not drawn), at Progesterone receptor [1], the EC50 was 5.2 nM. This molecule also gave an inhibitory constant (Ki) on Progesterone receptor [2] of 0.59 nM. For the same molecule, in the assay filed under Rattus norvegicus, the Efficacy is 60%.
At Progesterone receptor [1], `COc1ccc2c(c1)-c1ccc3c(c1C(c1ccc(Cl)cc1)O2)C(C)=CC(C)(C)N3` (stereo not drawn) gave an EC50 of 3.1 nM. This molecule also registered a Ki on Progesterone receptor [2] of 2.4 nM.
The corresponding values for `CC1=CC(C)(C)Nc2ccc3c(c21)C(c1cccc(C(F)(F)F)c1)Oc1ccc(F)cc1-3` (stereo not drawn) are 10 nM and 0.78 nM.
Take `CC1=CC(C)(C)Nc2ccc3c(c21)C(c1cccc(C(F)(F)F)c1)Oc1ccc(Cl)cc1-3` (stereo not drawn): affinity at Progesterone receptor [2] was put at a Ki of 1.1 nM.
In the case of `CC1=CC(C)(C)Nc2ccc3c(c21)C(c1ccc(F)c(C)c1)Oc1ccc(Cl)cc1-3` (stereo not drawn), the EC50 on Progesterone receptor [1] came out at 9.5 nM. Besides, the Ki at Progesterone receptor [2] is 1.3 nM.
The matching figures for `CC1=CC(C)(C)Nc2ccc3c(c21)C(c1ccc(Cl)cc1)Oc1cc(F)ccc1-3` (stereo not drawn): 10 nM and 2.7 nM.
The corresponding values for `CC1=CC(C)(C)Nc2ccc3c(c21)C(c1cccc(C)c1)Oc1ccc(Cl)cc1-3` (stereo not drawn) are 7.1 nM and 0.55 nM.
With `CC1=CC(C)(C)Nc2ccc3c(c21)C(c1ccccc1)Oc1ccc(Cl)cc1-3` (stereo not drawn), the response on Progesterone receptor [1] was half-maximal at 6.9 nM (EC50). Moreover, the Ki at Progesterone receptor [2] worked out at 0.74 nM.
Regarding `CC1=CC(C)(C)Nc2ccc3c(c21)C(c1ccc(Cl)c(C)c1)Oc1ccc(Cl)cc1-3` (stereo not drawn), the affinity at Progesterone receptor [2] corresponds to a Ki of 0.5 nM. That is a sub-nanomolar value.
In the case of `CC1=CC(C)(C)Nc2ccc3c(c21)C(c1ccc(Cl)cc1)Oc1ccc(F)cc1-3` (stereo not drawn), the EC50 on Progesterone receptor [1] turned out to be 8.1 nM. On Progesterone receptor [2], this molecule came in with an inhibition constant Ki of 0.32 nM. This molecule also gave an Efficacy in the assay filed under Rattus norvegicus of 116%.
With `CC1=CC(C)(C)Nc2ccc3c(c21)C(c1cccc(Cl)c1)Oc1ccc(Cl)cc1-3` (stereo not drawn), the EC50 on Progesterone receptor [1] worked out at 3.6 nM. The molecule further came in with a Ki at Progesterone receptor [2] of 0.48 nM.
On Progesterone receptor [1], `CC1=CC(C)(C)Nc2ccc3c(c21)C(c1cccc(Cl)c1)Oc1ccc(F)cc1-3` (stereo not drawn) gave an EC50 of 2.8 nM. The Ki on Progesterone receptor [2] came to 0.32 nM.
`CC1=CC(C)(C)Nc2ccc3c(c21)C(c1ccc(Cl)c(C)c1)Oc1ccc(F)cc1-3` (stereo not drawn) had an EC50 at Progesterone receptor [1] of 2.7 nM. In addition, the affinity at Progesterone receptor [2], expressed as Ki, was 0.49 nM.
Consider `CC1=CC(C)(C)Nc2ccc3c(c21)C(c1ccc(Cl)cc1)Oc1ccc(Cl)cc1-3` (stereo not drawn), for which, on Progesterone receptor [1], a half-maximal effect (EC50) was put at 9 nM. For the same molecule, on Progesterone receptor [2], the affinity, expressed as Ki, was 0.59 nM. In addition, the Efficacy in the assay filed under Rattus norvegicus is given as 108%.
For `CC1=CC(C)(C)Nc2ccc3c(c21)C(c1ccccc1)Oc1ccc(F)cc1-3` (stereo not drawn), the EC50 at Progesterone receptor [1] worked out at 7.4 nM. On Progesterone receptor [2], this molecule had a Ki of 2.2 nM.
The corresponding values for `COc1ccc(C2Oc3ccc(Cl)cc3-c3ccc4c(c32)C(C)=CC(C)(C)N4)cc1` (stereo not drawn) are 13 nM and 0.93 nM.
Regarding `CC1=CC(C)(C)Nc2ccc3c(c21)C(c1ccc(Cl)cc1)Oc1ccccc1-3` (stereo not drawn), the EC50 on Progesterone receptor [1] came out at 15 nM.
Regarding `CC1=CC(C)(C)Nc2ccc3c(c21)C(c1cccc(C)c1)Oc1ccc(F)cc1-3` (stereo not drawn), on Progesterone receptor [1], the EC50 is 5 nM. The same molecule displayed a Ki at Progesterone receptor [2] of 0.37 nM.
The matching figures for `CC1=CC(C)(C)Nc2ccc3c(c21)C(c1cccc(F)c1)Oc1ccc(Cl)cc1-3` (stereo not drawn): 3.7 nM and 0.34 nM.
The corresponding values for `COc1ccc(C2Oc3ccc(F)cc3-c3ccc4c(c32)C(C)=CC(C)(C)N4)cc1` (stereo not drawn) are 270 nM and 2.7 nM.
